Data reported in PMC10100342, “Thiamyxins: Structure and Biosynthesis of Myxobacterial RNA‐Virus Inhibitors” (Angewandte Chemie (International Ed. in English), 2022).
Converted amounts (≈) assume the structure as drawn. “And” between values parts separate entries of the source, which are not always exact repeats. Identical values can stand only once. Like-named read-outs stand apart in the source and are kept apart here.

What was measured:
hCoV-229E-luc = experiment: organism not typed; type: cell-based, alphacoronavirus HCoV-229E
ZIKV-H/PF/2013 = experiment: microbe, parasite or virus in culture; type: cell-based; conditions: Zika virus, Huh-7, 48 h, read-out: IC50 against ZIKV-H/PF/2013
in vitro [1] = conditions: human
Bacillus subtilis DSM-10 = experiment: Antimicrobial activity (MIC); conditions: DSM10, read-out: MIC Bacillus subtilis DSM-10
Mucor hiemalis DSM-2656 = experiment: Antimicrobial activity (MIC); conditions: DSM2656, read-out: MIC Mucor hiemalis DSM-2656
[2] = test system: Candida. albicans DSM-1665; experiment: Antimicrobial activity (MIC); conditions: DSM1665, read-out: MIC Candida. albicans DSM-1665
[3] = test system: Micrococcus luteus DSM-1790; experiment: Antimicrobial activity (MIC); conditions: DSM1790, read-out: MIC Micrococcus luteus DSM-1790
DENV-R2A [4] = experiment: microbe, parasite or virus in culture; conditions: Dengue virus, Huh-7, 48 h, read-out: IC50 against DENV-R2A
[5] = Cell viability (CellTiter Glo) of Huh-7 cells in parallel to ZIKV antiviral test; conditions: human
[6] = test system: Candida albicans, Mucor hiemalis, Bacillus subtilis and Micrococcus luteus; experiment: Antimicrobial test panel (whole-panel statements); conditions: in the tested concentrations
Description: All thiamyxins except congener A, which was only produced in low amounts, were tested against two
Gram-positive and two fungal pathogens.

DENV-R2A [7] = conditions: CC50 Huh-7 versus IC50 DENV-R2A
in vitro [8] = conditions: human; remark: listed apart in the source
[9] = Huh-7.5/Fluc cells, 48 h, 33 °C, Renilla luciferase, read-out: IC50 against hCoV-229E-luc
[10] = read-out: IC50 against hCoV-229E-luc, Huh-7.5/Fluc cells, 48 h, 33 °C, Renilla luciferase

| Compound | IC50 (hCoV-229E-luc; [9]) | CC50 (Huh-7.5 Fluc infected) | IC50 (hCoV-229E-luc; [10]) | IC50 (ZIKV-H/PF/2013) | CC50 (in vitro [1]) | MIC (Bacillus subtilis DSM-10) | MIC (Mucor hiemalis DSM-2656) | MIC [2] | MIC [3] | IC50 (DENV-R2A [4]) | also measured |
| --- | --- | --- | --- | --- | --- | --- | --- | --- | --- | --- | --- |
| COC(=O)/C=C(\OC)[C@H](C)[C@H](/C=C/c1csc(CCCCCC(C)C)n1)OC [Fulvuthiacene B] | 0.97 µM | > 10 µM |  |  |  |  |  |  |  |  |  |
| C=C(NC(=O)C1(C)CSC(c2csc(C3(C)CSC(C(NC(=O)C(C)NC(=O)C(=CC(C)C)CO)C(C)CC)=N3)n2)=N1)C(=O)NC(COC)C(=O)N(C)C(c1nc(C(=O)O)cs1)C(C)C (stereo not drawn) [Thiamyxin C] |  |  | > 10 µM | > 15 µM | > 10 µM | 64 µg/mL (≈ 65.6 µM) | 64 µg/mL (≈ 65.6 µM) | > 64 µg/mL | 32 µg/mL (≈ 32.8 µM) | 14.6 µM | IC50 (hCoV-229E-luc; read-out: IC50 against hCoV-229E-luc, Huh-7.5/Fluc cells, 48 h, 33 °C, Renilla luciferase, listed as KH_Mx152_976): 20.5 µM; IC50 (hCoV-229E-luc; read-out: IC50 against hCoV-229E-luc, Huh-7.5/Fluc cells, 48 h, 33 °C, Renilla luciferase, listed as thiamyxin C): ~20 µM and ~20.5 µM; CC50 at 48 h [5]: > 50 µM |
| NC(=O)c1ncn([C@@H]2O[C@H](CO)[C@@H](O)[C@H]2O)n1 [ribavirin, reference compound] |  |  |  | 2.5 µM |  |  |  |  |  | 2.3 µM |  |
| Chondrosarid B | 4.19 µM | > 10 µM |  |  |  |  |  |  |  |  |  |
| C=C(NC(=O)C1(C)CSC(c2csc(C3(C)CSC(C(NC(=O)C(C)NC(=O)C(=CC(C)C)CO)C(C)CC)=N3)n2)=N1)C(=O)NC(COC)C(=O)N(C)C(c1nc(C(=O)OCC(O)CO)cs1)C(C)C (stereo not drawn) [Thiamyxin D] |  |  | > 10 µM |  | > 10 µM | > 64 µg/mL | > 64 µg/mL | > 64 µg/mL | > 64 µg/mL |  | IC50 (hCoV-229E-luc; read-out: IC50 against hCoV-229E-luc, Huh-7.5/Fluc cells, 48 h, 33 °C, Renilla luciferase, listed as KH_Mx152_1050): 23.1 µM; IC50 (hCoV-229E-luc; read-out: IC50 against hCoV-229E-luc, Huh-7.5/Fluc cells, 48 h, 33 °C, Renilla luciferase, listed as thiamyxin D): ~20 µM and ~23.1 µM; effect on the antimicrobial test panel in words [6]: did not show effects |
| C=C1NC(=O)C2(C)CSC(=N2)c2csc(n2)C2(C)CSC(=N2)C(C(C)CC)NC(=O)C(C)NC(=O)C(=CC(C)C)COC(=O)c2csc(n2)C(C(C)C)N(C)C(=O)C(COC)NC1=O (stereo not drawn) [Thiamyxin A] |  |  | 2.47 µM |  | > 10 µM |  |  |  |  |  | IC50 (hCoV-229E-luc; Huh7.5, 48 h, read-out: IC50 against hCoV-229E-luc, Huh-7.5/Fluc cells, 48 h, 33 °C, Renilla luciferase): 2.49 µM |
| COC(=O)/C=C(\OC)[C@H](C)[C@H](/C=C/c1csc(CCCCCCCC(C)C)n1)OC [Fulvuthiacene A] | 1.95 µM | > 10 µM |  |  |  |  |  |  |  |  |  |
| C=C1NC(=O)C2(C)CSC(=N2)c2csc(n2)C2(C)CSC(=N2)C(C(C)CC)NC(=O)C(C)NC(=O)C(=CC(C)C)COC(=O)c2csc(n2)C(C(C)C)N(C)C(=O)C(COC)NC1=O (stereo not drawn) [Thiamyxin B] |  |  | 2.39 µM | 1.07 µM |  | > 64 µg/mL | > 64 µg/mL | 64 µg/mL (≈ 66.8 µM) | > 64 µg/mL | 0.56 µM | CC50 (Huh-7.5 Fluc infected; human): > 10 µM; difference between IC50 and CC50, DENV-R2A assay (DENV-R2A [7]): fourfold; CC50 at 48 h (in vitro [8]): 2.25 µM; CC50 at 48 h [5]: 2.25 µM |
